Experimental data taken from ChEMBL document CHEMBL1275373, “Identification by high-throughput screening of inhibitors of Schistosoma mansoni NAD(+) catabolizing enzyme” (Bioorg Med Chem, 2010).
Active and inactive are the calls of the source. The calls are words filed in the database; no cut-off is given here.

Columns and labels:
[1] = Inhibition of Schistosoma mansoni recombinant NAD+ glycohydrolase expressed in Pichia pastoris by continuous fluorometric method
Schistosoma mansoni = assay: Inhibition of Schistosoma mansoni recombinant NAD+ glycohydrolase expressed in Pichia pastoris at up to 100 uM by continuous fluorometric method
[2] = Competitive inhibition of Schistosoma mansoni recombinant NAD+ glycohydrolase expressed in Pichia pastoris by Michaelis-Menten equation analysis

Question: Which IC50 [1] does the source give for O=c1c(O)c(-c2ccc(O)c(O)c2)oc2cc(O)c(O)c(O)c12 [QUERCETAGETIN] here?
Answer: Its IC50 is 1.3 µM.

Question: With O=C1c2c(O)cc(O)cc2OC(c2ccc(O)c(O)c2)C1O (configuration not stated) [TAXIFOLIN] as the molecule, how does the IC50 [1] read?
Answer: Its IC50 is 19.5 µM.

Question: Which IC50 [1] does the source give for Oc1ccc2cc(O)c(-c3ccc(O)c(O)c3)[o+]c2c1 [FISETINIDIN] here?
Answer: Its IC50 is 6.4 µM.

Question: Which IC50 [1] does the source give for COc1cc(-c2[o+]c3cc(O)cc(O)c3cc2O)cc(OC)c1O [MALVIDIN] here?
Answer: The IC50 was 8 µM.

Question: For Oc1ccc(-c2[o+]c3cc(O)c(O)c(O)c3cc2O)cc1O [QUERCETAGETINIDIN], which IC50 [1] is on record?
Answer: Its IC50 is 6.1 µM.

Question: For Oc1ccc(-c2[o+]c3cc(O)cc(O)c3cc2O)cc1 [PELARGONIDIN], which IC50 [1] is on record?
Answer: The IC50 was 4.4 µM.

Question: Which IC50 [1] does the source give for COc1ccc(-c2ccc3c(O)cc(O)cc3[o+]2)cc1O [DIOSMETINIDIN] here?
Answer: Its IC50 is 9.9 µM.

Question: For CN(C)CC(=O)Nc1ccc2[nH]c(=O)c3ccccc3c2c1, which inhibition (Schistosoma mansoni) is on record?
Answer: Its inhibition is less than 10%.

Question: For O=c1c(O)c(-c2cc(O)c(O)c(O)c2)oc2cc(O)cc(O)c12 [MYRICETIN], which IC50 [1] is on record?
Answer: The IC50 was 22 µM.

Question: Which IC50 [1] does the source give for O=c1c(O)c(-c2ccc(O)c(O)c2)oc2cc(O)cc(O)c12 [QUERCETIN] here?
Answer: Its IC50 is 3.9 µM.

Question: Which IC50 [1] does the source give for Oc1cc(O)c2c(c1)OC(c1ccc(O)c(O)c1)C(O)C2 (configuration not stated) [CATECHIN] here?
Answer: The IC50 was greater than 100 µM.

Question: For Oc1cc(O)cc(/C=C/c2ccc(O)c(O)c2)c1 [PICEATANNOL], which IC50 [1] is on record?
Answer: Its IC50 is greater than 100 µM.

Question: Which IC50 [1] does the source give for COc1cc(-c2[o+]c3cc(O)cc(O)c3cc2O)cc(O)c1O [PETUNIDIN] here?
Answer: Its IC50 is 37.8 µM.

Question: For OC(c1cc(C(F)(F)F)nc2c(C(F)(F)F)cccc12)C1CCCCN1 (configuration not stated), which Activity (Schistosoma mansoni) is on record?
Answer: Its Activity is “inactive”.

Question: For CCN(CC)CCCC(C)Nc1ccnc2cc(Cl)ccc12 (configuration not stated), which Activity (Schistosoma mansoni) is on record?
Answer: Its Activity is “inactive”.

Question: Which IC50 [1] does the source give for Oc1ccc(/C=C/c2cc(O)cc(O)c2)cc1 [RESVERATROL] here?
Answer: Its IC50 is greater than 100 µM.

Question: With O=c1cc(-c2ccc(O)c(O)c2)oc2cc(O)cc(O)c12 [LUTEOLIN] as the molecule, how does the IC50 [1] read?
Answer: The IC50 was 8.4 µM.

Question: With Cc1ccc(C(=O)Nc2ccc(S(=O)(=O)O)c3cc(S(=O)(=O)O)cc(S(=O)(=O)O)c23)cc1NC(=O)c1cccc(NC(=O)Nc2cccc(C(=O)Nc3cc(C(=O)Nc4ccc(S(=O)(=O)O)c5cc(S(=O)(=O)O)cc(S(=O)(=O)O)c45)ccc3C)c2)c1 as the molecule, how does the inhibition (Schistosoma mansoni) read?
Answer: Its inhibition is less than 10%.

Question: For Oc1cc(O)c2cc(O)c(-c3cc(O)c(O)c(O)c3)[o+]c2c1 [DELPHINIDIN], which IC50 [1] is on record?
Answer: The IC50 was 6 µM.

Question: For OC[C@H]1O[C@@H](Oc2cc3c(O)cc(O)cc3[o+]c2-c2ccc(O)c(O)c2)[C@H](O)[C@@H](O)[C@@H]1O [KUROMANIN], which IC50 [1] is on record?
Answer: The IC50 was 8.2 µM.

Question: For O=c1c(O)c(-c2cc(O)c(O)c(O)c2)oc2cc(O)ccc12 [ROBINETIN], which IC50 [1] is on record?
Answer: The IC50 was 5.8 µM.

Question: For O=C(C1CCCCC1)N1CC(=O)N2CCc3ccccc3C2C1 (configuration not stated), which inhibition (Schistosoma mansoni) is on record?
Answer: Its inhibition is less than 10%.

Question: What does the source list for Oc1cc(O)c2cc(O)c(-c3ccc(O)c(O)c3)[o+]c2c1 [CYANIDIN]?
Answer: IC50 [1]: 2.3 µM; Ki [2]: 2.1 µM

Question: Which inhibition (Schistosoma mansoni) does the source give for O=C1NC(=O)c2cccc3cccc1c23 here?
Answer: The inhibition was less than 10%.

Question: For Oc1cc(O)c2ccc(-c3ccc(O)c(O)c3)[o+]c2c1 [LUTEOLINIDIN], which IC50 [1] is on record?
Answer: The IC50 was 5.9 µM.

Question: With COc1cc(/C=C/C(=O)CC(=O)/C=C/c2ccc(O)c(OC)c2)ccc1O as the molecule, how does the inhibition (Schistosoma mansoni) read?
Answer: Its inhibition is less than 10%.
